No end group written: not given here.
Key:
[1] = system: Rat bone marrow derived MSCs; test: DMMB assay (cartilage-specific sulfated glycosaminoglycans) of MSC-seeded printed scaffolds; assay type: cell-based
Description: (§1) Rat bone marrow derived MSCs (mesenchymal stem cells) were harvested by aspiration of bone marrow from the tibia of five 6-8 week old male Fischer 344 rats from Charles River Laboratories (Wilmington, MA), in accordance with protocols approved by the Rice Institutional Animal Care and Use Committee and in agreement with the animal care and use guidelines set forth by the National Institutes of Health. Cells from all rats were pooled to minimize inter-animal variability. Adherent cells were cultured in growth medium (DMEM with 10% v/v FBS and 1% v/v antibiotic-antimycotic) inside a humidified incubator at 37° C. and 5% CO2, and cryopreserved in liquid N2 until point of usage. All MSCs were used at Passage 3. Printed constructs were sterilized by exposure of both sides to UV light for 3 h, immersion in a sterile gradient (100%, 75%, 50%, 25%, 0%) of ethanol and PBS, and two additional washes in PBS. MSCs were seeded on the scaffolds by pipetting 30 μL of a 3.3×10^6 cells/mL suspension on top of each scaffold in a low-attachment 24-well plate. After 2 h, 970 μL of growth medium was gently added to each well. After 24 h of cell attachment, the growth medium was replaced with either chondrogenic, osteogenic, or osteochondral medium. Parallel chondrogenic (PCL-alkyne, PCL-NC) and osteogenic (PCL-alkyne, PCL-GHK) studies were conducted, in which scaffolds were cultured in both tissue-specific medium as well as mixed osteochondral medium. […] After weighing, each scaffold was frozen at −20° C. until ready for characterization. […] After homogenization, the proteinase K and acetic acid suspensions were allowed to digest for 16 h at 65° C. and room temperature, respectively, followed by quantification of biochemical content using assay kits. […] The bioactivity of PCL-peptide composites was determined by seeding MSCs on 3D printed constructs and investigating their ability to promote bone- and cartilage-specific ECM deposition in vitro. […]

[2] = system: Rat bone marrow derived MSCs; test: Arsenazo III assay (bone-specific mineralization) of MSC-seeded printed scaffolds; assay type: cell-based; settings: mixed osteochondral medium
Description: as §1, with “PBS.” for “PBS. MSCs were seeded on the scaffolds by pipetting 30 μL of a 3.3×10^6 cells/mL suspension on top of each scaffold in a low-attachment 24-well plate. After 2 h, 970 μL of growth medium was gently added to each well. After 24 h of cell attachment, the growth medium was replaced with either chondrogenic, osteogenic, or osteochondral medium. Parallel chondrogenic (PCL-alkyne, PCL-NC) and osteogenic (PCL-alkyne, PCL-GHK) studies were conducted, in which scaffolds were cultured in both tissue-specific medium as well as mixed osteochondral medium.”

[3] = microCT physical characterization of 3D printed PCL constructs; assay type: physicochemical; settings: melt-extruded 4-layer crosshatch scaffold
Method: The 3D printed PCL constructs were fabricated by melt extrusion with an EnvisionTEC 3D Bioplotter Manufacturer (Gladbeck, Germany). The polymer of interest was placed in a metal cartridge, heated to 85-95° C., and extruded through a 27G needle at 4.9-5.1 bar pressure, 4.0 mm/s deposition speed, and 0.4 s pre-flow and post-flow, with imaging after each layer. Constructs were printed as a cylindrical, alternating crosshatch pattern with 4 layers of 5 mm diameter and 220 μm thickness, producing scaffolds with total dimensions of 5 mm diameter and 0.88 mm height. The porosity, average fiber diameter, and average pore diameter of each construct was assessed by microcomputed tomography (μCT) using a Bruker SkyScan 1272 (Billerica, MA). Scans were acquired at a voltage of 40 kV and a current of 250 μA, with a rotation step size of 0.4°, 8 μm/pixel, frame averaging of 6, and random movement of 10. Reconstruction, slicing, and analysis were performed in Bruker NRecon and CTAn software (Billerica, MA) and LabView (Austin, TX). For quantification of physical architectural properties, a proportional volume of interest was set at 75% scale of the x, v, and z axes, equally spaced from the scaffold edges.

[4] = system: Rat bone marrow derived MSCs; test: PicoGreen assay (DNA content) of MSC-seeded printed scaffolds; assay type: cell-based; settings: osteogenic and osteochondral media, up to 28 days, FIG. 5A
Description: as §1, with “PBS.” for “PBS. MSCs were seeded on the scaffolds by pipetting 30 μL of a 3.3×10^6 cells/mL suspension on top of each scaffold in a low-attachment 24-well plate. After 2 h, 970 μL of growth medium was gently added to each well. After 24 h of cell attachment, the growth medium was replaced with either chondrogenic, osteogenic, or osteochondral medium. Parallel chondrogenic (PCL-alkyne, PCL-NC) and osteogenic (PCL-alkyne, PCL-GHK) studies were conducted, in which scaffolds were cultured in both tissue-specific medium as well as mixed osteochondral medium.”

| Substance | sGAG content normalized to cellular content (sGAG deposition per cell) ([1]; chondrogenic medium, up to day 28, FIG. 5D) | sGAG content normalized to cellular content (sGAG deposition per cell) ([1]; mixed osteochondral medium, over time, FIG. 5D) | sGAG content normalized to scaffold mass ([1]; serum-free chondrogenic medium, FIG. 5E) | Bone-specific calcium content normalized to cellular content (mineralization per cell) ([2]; FIG. 5B) | Bone-specific calcium content normalized to scaffold mass (scaffold mineralization) ([2]; FIG. 5C) | Average Fiber Diameter [3] [μm] | Average Pore Diameter [3] [μm] | Porosity [3] [%] | DNA content normalized to scaffold mass (cell proliferation) [4] |
| --- | --- | --- | --- | --- | --- | --- | --- | --- | --- |
| PCL-NC: PCL-alkyne click-conjugated to azide-terminated N-cadherin peptide (SEQ ID NO: 3, GGGHAVDI) (GGGHAVDI-NH2; not fully specified (N-terminus); also: N-terminal azide click-conjugated to PCL-alkyne) | large spike in cartilage-specific sGAG deposition per cell by day 28 | maintained a constant level of sGAG deposition per cell | statistically significant increase in mass-normalized sGAG content | greater mineralization per cell | did not produce statistically significant effects on scaffold mineralization | 200 ± 9 | 432 ± 31 | 71.8 ± 3.7 | statistically lower proliferation |
| PCL-BMPm: PCL-alkyne click-conjugated to azide-terminated bone morphogenetic protein mimetic peptide (SEQ ID NO: 1, GGGRHVRISRSL) (GGGRHVRISRSL-NH2; not fully specified (N-terminus); also: N-terminal azide click-conjugated to PCL-alkyne) | – | – | – | – | – | 262 ± 48 | 419 ± 37 | 70.7 ± 4.2 | – |
